Experimental data published in patent publication US20150209342A1, “TOPICAL RETINOID FORMULATIONS, PROCESSES FOR MAKING AND METHODS OF USE” (Allergan, Inc., priority 2014, published 2015).
Values after ≈ are worked out from the molar mass of the structure shown.

Assay: Tazarotene solubility in water, glycerin, and 70% glycerin solution
Type: physicochemical

solubility (70% glycerin solution, aqueous with cosolvent or surfactant or cyclodextrin, 70% Glycerin, 5 °C): 0.27 µg/mL (≈ 0.768 µM)
solubility (70% glycerin solution, aqueous with cosolvent or surfactant or cyclodextrin, 70% Glycerin, 25 °C): 0.68 µg/mL (≈ 1.93 µM)
solubility (70% glycerin solution, aqueous with cosolvent or surfactant or cyclodextrin, 70% Glycerin, 40 °C): 4.43 µg/mL (≈ 12.6 µM)
solubility (glycerin, 5 °C, organic solvent or mixture): 72.6 µg/mL (≈ 207 µM)
solubility (glycerin, 25 °C, organic solvent or mixture): 34.7 µg/mL (≈ 98.7 µM)
solubility (glycerin, 40 °C, organic solvent or mixture): 527 µg/mL (≈ 1500 µM)
solubility of tazarotene in glycerin (in words): low solubility
solubility (water, 5 °C): 0.07 µg/mL (≈ 0.199 µM)
solubility (water, 25 °C): 0.04 µg/mL (≈ 0.114 µM)
solubility (water, 40 °C): 1.7 µg/mL (≈ 4.84 µM)
SMILES: CCOC(=O)c1ccc(C#Cc2ccc3c(c2)C(C)(C)CCS3)nc1 [Tazarotene]
